Test results reported in ChEMBL document CHEMBL5346933, “Design and synthesis of novel arylurea derivatives of aryloxy(1-phenylpropyl) alicyclic diamines with antimicrobial activity against multidrug-resistant Gram-positive bacteria” (Eur J Med Chem, 2023).
In brackets after ≈: the same amount, converted by molar mass. Activity calls are given as the source filed them. The rule behind the calls is not given here.

Key:
Cell membrane [1] = experiment: Induction of cell membrane depolarization in methicillin-resistant Staphylococcus aureus 19449 assessed as bacterial cells with polarized membrane potential at 4 times MIC incubated for 25 to 30 mins by DiOC2(3) probe based flow cytometry (reference value: 98.8%); type: subcellular; settings: time 25-30 min
Staphylococcus aureus [2] = experiment: Bactericidal activity against vancomycin-intermediate Staphylococcus aureus ATCC 700699 assessed as log reduction of bacterial colony forming units at 4 times MIC incubated for 8 hrs in broth followed by culturing on agar plate for 24 hrs by time-killing assay; type: functional; settings: time 32 hrs
Klebsiella pneumoniae = experiment: Antibacterial activity against Klebsiella pneumoniae ATCC 700603 assessed as inhibition of bacterial growth incubated for 18 hrs by broth microdilution method; type: functional
Staphylococcus aureus [3] = experiment: Ratio of MBC to MIC for vancomycin-intermediate Staphylococcus aureus ATCC 700699; type: functional
Cell membrane [4] = experiment: Induction of cell membrane depolarization in methicillin-resistant Staphylococcus aureus 19449 assessed as bacterial cells with polarized membrane potential at 2XMIC incubated for 25 to 30 mins by DiOC2(3) probe based flow cytometry (reference value: 98.8%); type: subcellular; settings: time 25-30 min
Staphylococcus aureus [5] = experiment: Bactericidal activity against methicillin-resistant Staphylococcus aureus clinical strain 19449 assessed as reduction in colony forming units incubated for 18 hrs in broth followed by culturing on agar plate for 24 hrs; type: functional; settings: time 42 hrs, read-out: MBC99.9
[6] = system: Staphylococcus epidermidis; experiment: Ratio of MBC to MIC for biofilm producer Staphylococcus epidermidis ATCC 35984; type: functional
[7] = system: Staphylococcus epidermidis; experiment: Ratio of MBC to MIC for linezolid-resistant Staphylococcus epidermidis NIL 4399/19; type: functional
Staphylococcus aureus [8] = experiment: Bactericidal activity against biofilm producer Staphylococcus aureus RN450 assessed as reduction in colony forming units incubated for 18 hrs in broth followed by culturing on agar plate for 24 hrs; type: functional; settings: time 42 hrs, read-out: MBC99.9
Enterococcus faecalis [9] = experiment: Antibacterial activity against Enterococcus faecalis ATCC 29212 assessed as inhibition of bacterial growth incubated for 18 hrs by broth microdilution method; type: functional
Staphylococcus aureus [10] = experiment: Antibacterial activity against vancomycin-intermediate Staphylococcus aureus ATCC 700699 assessed as inhibition of bacterial growth incubated for 18 hrs by broth microdilution method; type: functional
Cell membrane [11] = experiment: Induction of cell membrane depolarization in vancomycin-resistant Enterococcus faecium clinical strain assessed as bacterial cells with polarized membrane potential at 4 times MIC incubated for 25 to 30 mins by DiOC2(3) probe based flow cytometry (reference value: 96.8%); type: subcellular; settings: time 25-30 min
Cell membrane [12] = experiment: Induction of cell membrane depolarization in methicillin-resistant Staphylococcus aureus 19449 assessed as bacterial cells with polarized membrane potential at MIC incubated for 25 to 30 mins by DiOC2(3) probe based flow cytometry (reference value: 98.8%); type: subcellular; settings: time 25-30 min
[13] = system: Staphylococcus epidermidis; experiment: Ratio of MBC to MIC for methicillin-susceptible Staphylococcus epidermidis ATCC 12228; type: functional
[14] = Cytotoxicity against human MRC5 cells assessed as reduction in cell viability incubated for 24 hrs by MTT assay; type: toxicity, cell-based
Staphylococcus aureus [15] = experiment: Antibacterial activity against methicillin-susceptible Staphylococcus aureus ATCC 25923 assessed as inhibition of bacterial growth incubated for 18 hrs by broth microdilution method; type: functional
[16] = system: Staphylococcus epidermidis; experiment: Antibacterial activity against methicillin-susceptible Staphylococcus epidermidis ATCC 12228 assessed as inhibition of bacterial growth incubated for 18 hrs by broth microdilution method; type: functional
Cell membrane [17] = experiment: Induction of cell membrane depolarization in vancomycin-resistant Enterococcus faecium clinical strain assessed as bacterial cells with polarized membrane potential at 2XMIC incubated for 25 to 30 mins by DiOC2(3) probe based flow cytometry (reference value: 96.8%); type: subcellular; settings: time 25-30 min
Enterococcus faecium = experiment: Antibacterial activity against vancomycin-resistant Enterococcus faecium assessed as inhibition of bacterial growth measured for 18 hrs by OD600 based analysis; type: functional, organism-based
[18] = Metabolic stability in rat liver microsomes assessed as parent compound remaining at 0.4 mg/ml preincubated for 10 mins followed by NADPH-regenerating system addition for 60 mins by UPLC-MS analysis; type: ADME, Microsome; settings: time 70 min, read-out: Stability
Cell membrane [19] = experiment: Induction of cell membrane depolarization in methicillin-resistant Staphylococcus aureus 19449 assessed as ratio of red to green fluorescence intensity at MIC incubated for 25 to 30 mins by DiOC2(3) probe based flow cytometry; type: subcellular; settings: time 25-30 min
[20] = system: Staphylococcus epidermidis; experiment: Antibacterial activity against biofilm producer Staphylococcus epidermidis ATCC 35984 assessed as inhibition of bacterial growth incubated for 18 hrs by broth microdilution method; type: functional
Streptococcus pneumoniae [21] = experiment: Antibacterial activity against macrolides-lincosamides and streptogramins B-resistant Streptococcus pneumoniae O/19/4199 assessed as inhibition of bacterial growth incubated for 18 hrs by broth microdilution method; type: functional
Cell membrane [22] = experiment: Induction of cell membrane depolarization in vancomycin-resistant Enterococcus faecium clinical strain assessed as bacterial cells with depolarized membrane potential at 4 times MIC incubated for 25 to 30 mins by DiOC2(3) probe based flow cytometry (reference value: 0.8%); type: subcellular; settings: time 25-30 min
[23] = system: Staphylococcus epidermidis; experiment: Bactericidal activity against biofilm producer Staphylococcus epidermidis ATCC 35984 assessed as reduction in colony forming units incubated for 18 hrs in broth followed by culturing on agar plate for 24 hrs; type: functional; settings: time 42 hrs, read-out: MBC99.9
Streptococcus pneumoniae [24] = experiment: Antibacterial activity against Streptococcus pneumoniae ATCC 49619 assessed as inhibition of bacterial growth incubated for 18 hrs by broth microdilution method; type: functional
Cell membrane [25] = experiment: Induction of cell membrane depolarization in Staphylococcus aureus Newman assessed as ratio of red to green fluorescence intensity at MIC incubated for 25 to 30 mins by DiOC2(3) probe based flow cytometry; type: subcellular; settings: time 25-30 min
Cell membrane [26] = experiment: Induction of cell membrane depolarization in methicillin-resistant Staphylococcus aureus 19449 assessed as bacterial cells with depolarized membrane potential at 4 times MIC incubated for 25 to 30 mins by DiOC2(3) probe based flow cytometry (reference value: 0.7%); type: subcellular; settings: time 25-30 min
[27] = Induction of hemolysis in horse RBC at 200 uM incubated for 1 hr; type: toxicity, cell-based, Equus caballus, Erythrocyte; settings: horse red blood cells (erythrocytes), read-out: Activity
Cell membrane [28] = experiment: Induction of cell membrane depolarization in Staphylococcus aureus Newman assessed as bacterial cells with depolarized membrane potential at 2XMIC incubated for 25 to 30 mins by DiOC2(3) probe based flow cytometry (reference value: 1.6%); type: subcellular; settings: time 25-30 min
Enterococcus faecalis [29] = experiment: Ratio of MBC to MIC for Enterococcus faecalis ATCC 29212; type: functional

Question: For O=C(Nc1cccc(Cl)c1)NC1CCN(CCC(Oc2cccc(C(F)(F)F)c2)c2ccccc2)CC1 (racemic), which Activity (Cell membrane [1]) is on record?
Answer: Its Activity is 0%.

Question: What about the Activity (Staphylococcus aureus [2]) of the same compound?
Answer: The Activity was 2 log10CFU/ml.

Question: And the MIC (Klebsiella pneumoniae)?
Answer: Its MIC is over 12.5 µg/mL.

Question: What about the Ratio (Staphylococcus aureus [3]) of the same compound?
Answer: The Ratio was 4.

Question: And the Activity (Cell membrane [4])?
Answer: Its Activity is 0.1%.

Question: What about the MBC (Staphylococcus aureus [5]) of the same compound?
Answer: The MBC was 3.12 µg/mL (≈ 5.87 µM).

Question: And the Ratio [6]?
Answer: The Ratio was 4.

Question: What about the Ratio [7] of the same compound?
Answer: The Ratio was 2.

Question: And the MBC (Staphylococcus aureus [8])?
Answer: Its MBC is 6.25 µg/mL (≈ 11.7 µM).

Question: And the MIC (Enterococcus faecalis [9])?
Answer: Its MIC is 1.56 µg/mL (≈ 2.93 µM).

Question: What about the MIC (Staphylococcus aureus [10]) of the same compound?
Answer: Its MIC is 3.12 µg/mL (≈ 5.87 µM).

Question: What about the Activity (Cell membrane [11]) of the same compound?
Answer: Its Activity is 1.5%.

Question: What about the Activity (Cell membrane [12]) of the same compound?
Answer: Its Activity is 6%.

Question: What about the Ratio [13] of the same compound?
Answer: Its Ratio is 1.

Question: And the IC50 at 24 h [14]?
Answer: Its IC50 at 24 h is 12.5 µg/mL (≈ 23.5 µM).

Question: And the MIC (Staphylococcus aureus [15])?
Answer: Its MIC is 3.12 µg/mL (≈ 5.87 µM).

Question: And the MIC [16]?
Answer: Its MIC is 3.12 µg/mL (≈ 5.87 µM).

Question: And the Activity (Cell membrane [17])?
Answer: Its Activity is 0.3%.

Question: What about the Activity (Enterococcus faecium) of the same compound?
Answer: The Activity was “Active”.

Question: And the remaining at 1 h [18]?
Answer: Its remaining at 1 h is 95%.

Question: What about the Ratio (Cell membrane [19]) of the same compound?
Answer: The Ratio was 0.53.

Question: And the MIC [20]?
Answer: Its MIC is 1.56 µg/mL (≈ 2.93 µM).

Question: And the MIC (Streptococcus pneumoniae [21])?
Answer: The MIC was 6.25 µg/mL (≈ 11.7 µM).

Question: What about the Activity (Cell membrane [22]) of the same compound?
Answer: Its Activity is 89.3%.

Question: And the MBC [23]?
Answer: Its MBC is 6.25 µg/mL (≈ 11.7 µM).

Question: What about the MIC (Streptococcus pneumoniae [24]) of the same compound?
Answer: Its MIC is 6.25 µg/mL (≈ 11.7 µM).

Question: And the Ratio (Cell membrane [25])?
Answer: The Ratio was 0.27.

Question: And the Activity (Cell membrane [26])?
Answer: The Activity was 96.4%.

Question: What about the hemolysis at 1 h, 200 µM [27] of the same compound?
Answer: Its hemolysis at 1 h, 200 µM is under 1%.

Question: And the Activity (Cell membrane [28])?
Answer: The Activity was 89.3%.

Question: What about the Ratio (Enterococcus faecalis [29]) of the same compound?
Answer: Its Ratio is 4.
